# Data published in US10544146B2, “Bicyclic compounds and their use as antibacterial agents and β-lactamase inhibitors” (priority 2011, dated 2020).
# Key:
# Format in all cases: cell-based
# K. pneumo JMI 2681 = test: MIC, antibacterial and synergistic activity; settings: substance alone
# E. coli JMI 10768 = test: MIC, antibacterial and synergistic activity; settings: E. coli JMI 10768, CTX-M15 (Weak ESBL); substance alone
# E. coli JMI 10770 = test: MIC, antibacterial and synergistic activity; settings: E. coli JMI 10770, CTX-M15 (Hyper ESBL); substance alone
# P. aerug JMI 2686 = test: MIC, antibacterial and synergistic activity; settings: substance alone
# K. pneumo JMI 4088 = test: MIC, antibacterial and synergistic activity; settings: substance alone
# K. pneumo JMI 2674 = test: MIC, antibacterial and synergistic activity; settings: K. pneumo JMI 2674, CTX-M15 (ESBL); substance alone
# E. coli JMI 4080 = test: MIC, antibacterial and synergistic activity; settings: Escherichia coli, JMI4080, E. coli JMI 4080, Tem-10; substance alone
# E. coli JMI 4103 = test: MIC, antibacterial and synergistic activity; settings: Escherichia coli, JMI4103; E. coli JMI 4103, KPC-2, Tem-1, CMY-Type; substance alone
# E. coli ATCC 25922 = test: MIC, antibacterial and synergistic activity; settings: Escherichia coli, ATCC25922, E. coli ATCC 25922, enzyme Wt; substance alone
# Procedure: (§1) In the Tables 10-12, compounds of the present invention were tested in combination with various antibiotics against metallo β-lactamase producing bacteria.
# E. coli JMI 10767 = test: MIC, antibacterial and synergistic activity; settings: E. coli JMI 10767, Wt; substance alone
# Procedure: as §1
# K. pneumo JMI 2697 = test: MIC, antibacterial and synergistic activity; settings: K. pneumo JMI 2697, IMP-4 (Cpase); substance alone
# Procedure: as §1
# E. coli JMI 2692 = test: MIC, antibacterial and synergistic activity; settings: Escherichia coli, JMI2692; E. coli JMI 2692, NDM-1, TEM-1, CTX-M-15; substance alone
# Procedure: as §1
# K. pneumo JMI 2693 = test: MIC, antibacterial and synergistic activity; settings: K. pneumo JMI 2693, NDM-1 (Cpase); substance alone
# Procedure: as §1
# A. baumanii JMI 2659 = test: MIC, antibacterial and synergistic activity; settings: Acinetobacter baumannii, JMI2659, substance alone
# Procedure: as §1
# P. aerug JMI 149 = test: MIC, antibacterial and synergistic activity; settings: substance alone
# Procedure: as §1
# E. coli JMI 11103 = test: MIC, antibacterial and synergistic activity; settings: substance alone
# [1] = tested on: metallo β-lactamase producing bacteria; test: MIC in combination with various antibiotics against metallo β-lactamase producing bacteria (Tables 10-12); settings: substance alone
# Procedure: as §1
# K. pneumo JMI 4106 = test: MIC, antibacterial and synergistic activity; settings: substance alone
# [2] = P. aerug JMI 2686, KPC-2 (Cpase)
# [3] = K. pneumo JMI 4088, KPC-3 (Cpase)
# [4] = Enterobacter cloacae, Enterobacter cloacae isolate 25, IMP-4
# [5] = Enterobacter cloacae, Enterobacter cloacae isolate 1280, VIM-5
# [6] = Enterobacter cloacae, Enterobacter cloacae isolate 1471, VIM-1
# [7] = Enterobacter cloacae, Enterobacter cloacae isolate 1874, IMP-21
# [8] = Enterobacter cloacae, Enterobacter cloacae isolate 3686, IMP-1
# [9] = Escherichia coli, Escherichia coli isolate 13, IMP-1
# [10] = Klebsiella aerogenes, Enterobacter aerogenes isolate 47683, VIM-12
# [11] = Klebsiella oxytoca, Klebsiella oxytoca isolate 31141, VIM-23
# [12] = Klebsiella pneumoniae, Klebsiella pneumoniae isolate 38, NDM-1
# [13] = Providencia stuartii, Providencia stuartii isolate 26582, VIM-1
# [14] = K. pneumo JMI 4106, KPC-3, TEM-1, SHV-12, SHV-141
# [15] = Citrobacter freundii, Citrobacter freundii isolate 49469, NDM-1
# [16] = Enterobacter cloacae, Enterobacter cloacae isolate 4, VIM-6
# [17] = Enterobacter cloacae, Enterobacter cloacae isolate 10, IMP-26
# [18] = Enterobacter cloacae, Enterobacter cloacae isolate 1068, VIM-2
# [19] = Enterobacter cloacae, Enterobacter cloacae isolate 53477, NDM-1
# [20] = Escherichia coli, Escherichia coli isolate 17, NDM-1
# [21] = Escherichia coli, Escherichia coli isolate 49, NDM-1
# [22] = Escherichia coli, Escherichia coli isolate 53749, NDM-1
# [23] = Klebsiella aerogenes, Enterobacter aerogenes isolate 8397, VIM-1
# [24] = Klebsiella oxytoca, Klebsiella oxytoca isolate 24825, IMP-26
# [25] = Klebsiella pneumoniae, Klebsiella pneumoniae isolate 16, VIM-5
# [26] = Serratia marcescens, Serratia marcescens isolate 35, IMP-4
# [27] = Serratia marcescens, Serratia marcescens isolate 36098, IMP-19
compound,measurement,setting,value
"C[C@H]1[C@H](NC(=O)/C(=N\OC(C)(C)C(=O)O)c2csc(N)n2)C(=O)N1S(=O)(=O)O [Aztreonam, aztreonam]",MIC,"K. pneumo JMI 2681; K. pneumo JMI 2681, Oxa-48 (Cpase)",512 mg/L
same,MIC,"K. pneumo JMI 2681; K. pneumo JMI 2681, enzyme Oxa-48 (Cpase)",512 mg/L
same,MIC alone,E. coli JMI 10768,8 mg/L
same,MIC alone,E. coli JMI 10770,64 mg/L
same,MIC,P. aerug JMI 2686; [2],512 mg/L
same,MIC alone,P. aerug JMI 2686; [2],>512 mg/L
same,MIC,"P. aerug JMI 2686; P. aerug JMI 2686, enzyme KPC-2 (Cpase)",512 mg/L
same,MIC,K. pneumo JMI 4088; [3],> 512 mg/L
same,MIC alone,K. pneumo JMI 4088; [3],512 mg/L
same,MIC alone,"K. pneumo JMI 4088; K. pneumo JMI 4088, enzyme KPC-3 (Cpase)",512 mg/L
same,MIC alone,K. pneumo JMI 2674,32 mg/L
same,MIC,E. coli JMI 4080,64 mg/L
same,MIC,E. coli JMI 4103,> 512 mg/L
same,MIC,E. coli ATCC 25922,0.25 mg/L
same,MIC alone,E. coli JMI 10767,≤1 mg/L
same,MIC,K. pneumo JMI 2697,> 512 mg/L
same,MIC,E. coli JMI 2692,> 512 mg/L
same,MIC,K. pneumo JMI 2693,> 512 mg/L
same,MIC,"A. baumanii JMI 2659; A. baumanii JMI 2659, Ges-14 (Cpase)",512 mg/L
same,MIC,"A. baumanii JMI 2659; A. baumanii JMI 2659, enzyme Ges-14 (Cpase)",512 mg/L
same,MIC alone,"P. aerug JMI 149; P. aerug JMI 149, Bla+++D+",512 mg/L
same,MIC,"P. aerug JMI 149; P. aerug JMI 149, enzyme Bla+++D+",512 mg/L
same,MIC alone,"E. coli JMI 11103; E. coli JMI 11103, CTX-M15 (Intermediate ESBL)",16 mg/L
same,MIC,"E. coli JMI 11103; Escherichia coli, JMI11103, E. coli JMI 11103, CTX-M15 (Intermediate ESBL)",32 mg/L
same,MIC,[1]; [4],64 mg/L
same,MIC,[1]; [5],8 mg/L
same,MIC,[1]; [6],64 mg/L
same,MIC,[1]; [7],≤ 0.12 mg/L
same,MIC,[1]; [8],32 mg/L
same,MIC,[1]; [9],16 mg/L
same,MIC,[1]; [10],4 mg/L
same,MIC,[1]; [11],8 mg/L
same,MIC,[1]; [12],64 mg/L
same,MIC,[1]; [13],32 mg/L
same,MIC,K. pneumo JMI 4106; [14],> 512 mg/L
same,MIC alone,K. pneumo JMI 4106; [14],512 mg/L
same,MIC alone,"K. pneumo JMI 4106; K. pneumo JMI 4106, enzyme KPC-3, TEM-1, SHV-12, SHV-141",512 mg/L
"O=C(NO[C@H]1CCCNC1)[C@@H]1CC[C@@H]2CN1C(=O)N2OS(=O)(=O)O [Ex. 4, (2S,5R)-7-Oxo-N-[(3S)-piperidin-3-yloxy]-6-(sulfooxy)-1,6-diazabicyclo[3.2.1]octane-2-carboxamide]",MIC,[1]; [15],> 64 mg/L
same,MIC,[1]; [16],64 mg/L
same,MIC,[1]; [17],64 mg/L
same,MIC,[1]; [4],4 mg/L
same,MIC,[1]; [18],4 mg/L
same,MIC,[1]; [5],4 mg/L
same,MIC,[1]; [6],4 mg/L
same,MIC,[1]; [7],2 mg/L
same,MIC,[1]; [8],4 mg/L
same,MIC,[1]; [19],8 mg/L
same,MIC,[1]; [9],2 mg/L
same,MIC,[1]; [20],2 mg/L
same,MIC,[1]; [21],2 mg/L
same,MIC,[1]; [22],2 mg/L
same,MIC,[1]; [23],> 64 mg/L
same,MIC,[1]; [10],> 64 mg/L
same,MIC,[1]; [24],> 64 mg/L
same,MIC,[1]; [11],> 64 mg/L
same,MIC,[1]; [25],> 64 mg/L
same,MIC,[1]; [12],> 64 mg/L
same,MIC,[1]; [13],> 64 mg/L
same,MIC,[1]; [26],> 64 mg/L
same,MIC,[1]; [27],> 64 mg/L
"O=C(NO[C@H]1CCNC1)[C@@H]1CC[C@@H]2CN1C(=O)N2OS(=O)(=O)O [Ex. 2, (2S,5R)-7-Oxo-N-[(3S)-pyrrolidin-3-yloxy]-6-(sulfooxy)-1,6-diazabicyclo[3.2.1]octane-2-carboxamide]",MIC,[1]; [15],> 64 mg/L
same,MIC,[1]; [16],64 mg/L
same,MIC,[1]; [17],64 mg/L
same,MIC,[1]; [4],8 mg/L
same,MIC,[1]; [18],8 mg/L
same,MIC,[1]; [5],4 mg/L
same,MIC,[1]; [6],4 mg/L
same,MIC,[1]; [7],4 mg/L
same,MIC,[1]; [8],4 mg/L
same,MIC,[1]; [19],4 mg/L
same,MIC,[1]; [9],16 mg/L
same,MIC,[1]; [20],4 mg/L
same,MIC,[1]; [21],4 mg/L
same,MIC,[1]; [22],4 mg/L
same,MIC,[1]; [23],> 64 mg/L
same,MIC,[1]; [10],> 64 mg/L
same,MIC,[1]; [24],> 64 mg/L
same,MIC,[1]; [11],> 64 mg/L
same,MIC,[1]; [25],> 64 mg/L
same,MIC,[1]; [12],> 64 mg/L
same,MIC,[1]; [13],> 64 mg/L
same,MIC,[1]; [26],> 64 mg/L
same,MIC,[1]; [27],> 64 mg/L
"CC(=O)NNC(=O)[C@@H]1CC[C@@H]2CN1C(=O)N2OS(=O)(=O)O [Ex. 40, (2S,5R)-N′-acetyl-7-oxo-6-(sulfooxy)-1,6-diazabicyclo[3.2.1]octane-2-carbohydrazide]",MIC,[1]; [15],> 64 mg/L
same,MIC,[1]; [16],61 mg/L
same,MIC,[1]; [17],61 mg/L
same,MIC,[1]; [4],4 mg/L
same,MIC,[1]; [18],4 mg/L
same,MIC,[1]; [5],4 mg/L
same,MIC,[1]; [6],2 mg/L
same,MIC,[1]; [7],2 mg/L
same,MIC,[1]; [8],2 mg/L
same,MIC,[1]; [19],2 mg/L
same,MIC,[1]; [9],1 mg/L
same,MIC,[1]; [20],2 mg/L
same,MIC,[1]; [21],2 mg/L
same,MIC,[1]; [22],2 mg/L
same,MIC,[1]; [23],> 64 mg/L
same,MIC,[1]; [10],> 64 mg/L
same,MIC,[1]; [24],> 64 mg/L
same,MIC,[1]; [11],> 64 mg/L
same,MIC,[1]; [25],> 64 mg/L
same,MIC,[1]; [12],> 64 mg/L
same,MIC,[1]; [13],> 64 mg/L
same,MIC,[1]; [26],> 64 mg/L
same,MIC,[1]; [27],> 64 mg/L
